This note sets out measurements from PMC4770715, “LIM kinase inhibitors disrupt mitotic microtubule organization and impair tumor cell proliferation” (Oncotarget, 2015).

Common to all, as to assay: biochemical
What all share (parameters): KINOMEscan active-site competition binding, percent of control (100 = no competition)
What all share (conditions): competition binding, percent control

The target in one assay is T1, PFTK1 (Homo sapiens, UniProt O94921).
T1 construct: gene CDK14
The text has this:
(§1) Given the potential for the use of LIMK inhibitors as cancer chemotherapeutics, a high-throughput drug discovery and medicinal chemistry program was undertaken. Details of the screening methodology and description of initial hit matter were described in [38]. […] Details of their chemical synthesis are described in Charles et al.. […] These and additional physiochemical parameters are in Supplemental Table 5. […] Kinases inhibited >25% to 50% have yellow circles, 51% to 75% have orange circles, and >76% have red circles. In each case, the size of the circle is proportional to percentage inhibition. LIMK1 and LIMK2 positions are indicated in blue. Illustration reproduced courtesy of Cell Signaling Technology, Inc. (www.cellsignal.com). B. CRT0105950 structure and kinome selectivity mapping as described above. C.

A further assay addresses NEK5 (Homo sapiens, UniProt Q6P3R8).
Excerpt: as §1

The next assay addresses TLK2 (Homo sapiens, UniProt Q86UE8).
Excerpt: as §1

In a further assay the target is CAMK2G (Homo sapiens, UniProt Q13555).
Excerpt: as §1

A further assay concerns the target CLK3 (Homo sapiens, UniProt P49761).
Excerpt: as §1

The target in the next assay is MELK (Homo sapiens, UniProt Q14680).
Excerpt: as §1

For another assay, the target named is T2, NDR1 (Homo sapiens, UniProt Q15208).
T2 construct: gene STK38
Excerpt: as §1

The target in the next assay is MTOR (Homo sapiens, UniProt P42345).
Excerpt: as §1

The target of another assay is FLT3(N841I) (Homo sapiens, UniProt P36888, N841I).
Excerpt: as §1

Another assay deals with INSR (Homo sapiens, UniProt P06213).
Excerpt: as §1

The target in a further assay is MAK (Homo sapiens, UniProt P20794).
Excerpt: as §1

In assay [1] the target is T3, ABL1(Q252H)-phosphorylated (Homo sapiens, UniProt P00519, Q252H).
T3 construct: phosphorylated
Excerpt: as §1

For the next assay, the target named is AURKC (Homo sapiens, UniProt Q9UQB9).
Excerpt: as §1

The target in a further assay is T4, MST1 (Homo sapiens, UniProt Q13043).
T4 construct: gene STK4
Excerpt: as §1

For a further assay, the target named is HIPK4 (Homo sapiens, UniProt Q8NE63).
Excerpt: as §1

A further assay deals with PRKD3 (Homo sapiens, UniProt O94806).
Excerpt: as §1

Assay [2] addresses T5, ABL1(F317L)-nonphosphorylated (Homo sapiens, UniProt P00519, F317L).
T5 construct: nonphosphorylated
Excerpt: as §1

Another assay concerns the target MAP4K5 (Homo sapiens, UniProt Q9Y4K4).
Excerpt: as §1

Another assay addresses FLT3(ITD) (Homo sapiens, UniProt P36888, ITD).
Excerpt: as §1

For another assay, the target named is T6, MLCK (Homo sapiens, UniProt Q32MK0).
T6 construct: gene MYLK3
Excerpt: as §1

For the next assay, the target named is PHKG2 (Homo sapiens, UniProt P15735).
Excerpt: as §1

For a further assay, the target named is SRMS (Homo sapiens, UniProt Q9H3Y6).
Excerpt: as §1

In the next assay the target is MET(Y1235D) (Homo sapiens, UniProt P08581, Y1235D).
Excerpt: as §1

Structures are written as SMILES.

Chain of HIPK4 (Q8NE63 whole entry): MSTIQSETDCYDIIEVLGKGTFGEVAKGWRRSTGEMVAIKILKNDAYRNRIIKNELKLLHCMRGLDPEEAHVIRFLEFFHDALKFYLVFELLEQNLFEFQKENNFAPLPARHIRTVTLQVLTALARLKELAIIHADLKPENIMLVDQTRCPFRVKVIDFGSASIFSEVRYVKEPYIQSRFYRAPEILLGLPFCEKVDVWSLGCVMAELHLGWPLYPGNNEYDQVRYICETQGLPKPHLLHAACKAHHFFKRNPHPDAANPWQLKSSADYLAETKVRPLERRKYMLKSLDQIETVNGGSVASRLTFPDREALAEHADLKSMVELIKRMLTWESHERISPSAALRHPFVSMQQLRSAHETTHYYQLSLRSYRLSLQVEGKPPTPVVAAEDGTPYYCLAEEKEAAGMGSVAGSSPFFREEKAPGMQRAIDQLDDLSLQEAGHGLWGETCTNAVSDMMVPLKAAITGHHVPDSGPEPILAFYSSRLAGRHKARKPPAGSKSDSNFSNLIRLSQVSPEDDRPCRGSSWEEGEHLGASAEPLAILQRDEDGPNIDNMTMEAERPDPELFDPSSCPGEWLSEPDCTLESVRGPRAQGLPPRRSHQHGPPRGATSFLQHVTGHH
Chain of MELK (Q14680 whole entry): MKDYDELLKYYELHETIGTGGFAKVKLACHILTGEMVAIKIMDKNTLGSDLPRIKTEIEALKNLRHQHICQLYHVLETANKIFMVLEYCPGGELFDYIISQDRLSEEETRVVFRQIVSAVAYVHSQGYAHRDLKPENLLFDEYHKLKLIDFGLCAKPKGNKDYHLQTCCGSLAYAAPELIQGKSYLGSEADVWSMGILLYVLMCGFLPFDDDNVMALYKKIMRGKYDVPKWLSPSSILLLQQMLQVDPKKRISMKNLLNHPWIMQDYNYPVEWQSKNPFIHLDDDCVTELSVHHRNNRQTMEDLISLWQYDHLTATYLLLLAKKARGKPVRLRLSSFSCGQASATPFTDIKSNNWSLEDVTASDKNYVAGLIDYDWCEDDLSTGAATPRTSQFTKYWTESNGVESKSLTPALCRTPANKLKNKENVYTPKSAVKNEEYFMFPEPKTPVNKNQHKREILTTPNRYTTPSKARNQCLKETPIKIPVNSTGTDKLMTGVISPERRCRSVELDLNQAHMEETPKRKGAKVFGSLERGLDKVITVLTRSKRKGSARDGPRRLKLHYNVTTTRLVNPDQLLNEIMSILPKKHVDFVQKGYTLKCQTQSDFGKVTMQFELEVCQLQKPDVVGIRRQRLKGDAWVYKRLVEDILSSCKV
Chain of CLK3 (P49761 whole entry): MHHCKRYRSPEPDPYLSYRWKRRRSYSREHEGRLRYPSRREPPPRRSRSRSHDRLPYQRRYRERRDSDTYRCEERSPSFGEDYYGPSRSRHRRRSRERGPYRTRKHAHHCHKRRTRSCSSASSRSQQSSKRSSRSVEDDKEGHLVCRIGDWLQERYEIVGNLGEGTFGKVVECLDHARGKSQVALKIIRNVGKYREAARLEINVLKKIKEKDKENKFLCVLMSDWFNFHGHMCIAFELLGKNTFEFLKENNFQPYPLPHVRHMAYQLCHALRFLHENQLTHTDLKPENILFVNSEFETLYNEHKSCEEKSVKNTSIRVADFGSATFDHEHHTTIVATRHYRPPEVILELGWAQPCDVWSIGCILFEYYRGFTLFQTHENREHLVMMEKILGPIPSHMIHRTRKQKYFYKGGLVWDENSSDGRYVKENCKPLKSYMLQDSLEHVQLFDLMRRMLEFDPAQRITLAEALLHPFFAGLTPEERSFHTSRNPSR
Chain of NEK5 (Q6P3R8 whole entry): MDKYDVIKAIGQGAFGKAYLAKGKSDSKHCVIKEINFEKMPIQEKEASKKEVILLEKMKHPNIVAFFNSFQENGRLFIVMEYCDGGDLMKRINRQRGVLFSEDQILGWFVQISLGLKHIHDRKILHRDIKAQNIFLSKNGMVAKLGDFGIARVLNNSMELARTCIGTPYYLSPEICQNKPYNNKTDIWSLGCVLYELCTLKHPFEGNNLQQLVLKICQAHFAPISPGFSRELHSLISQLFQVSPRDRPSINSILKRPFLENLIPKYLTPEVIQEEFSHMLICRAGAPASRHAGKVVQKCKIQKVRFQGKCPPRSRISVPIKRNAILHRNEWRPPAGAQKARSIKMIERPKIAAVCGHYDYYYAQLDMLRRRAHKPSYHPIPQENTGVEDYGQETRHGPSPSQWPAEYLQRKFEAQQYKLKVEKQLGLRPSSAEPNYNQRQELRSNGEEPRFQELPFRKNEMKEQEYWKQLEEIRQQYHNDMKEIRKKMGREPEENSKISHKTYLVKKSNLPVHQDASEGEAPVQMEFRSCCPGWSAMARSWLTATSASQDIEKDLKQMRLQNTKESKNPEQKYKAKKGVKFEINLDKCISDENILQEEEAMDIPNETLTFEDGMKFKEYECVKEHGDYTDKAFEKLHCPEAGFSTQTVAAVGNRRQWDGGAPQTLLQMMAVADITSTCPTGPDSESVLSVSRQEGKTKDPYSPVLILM
Chain of MAK (P20794 whole entry): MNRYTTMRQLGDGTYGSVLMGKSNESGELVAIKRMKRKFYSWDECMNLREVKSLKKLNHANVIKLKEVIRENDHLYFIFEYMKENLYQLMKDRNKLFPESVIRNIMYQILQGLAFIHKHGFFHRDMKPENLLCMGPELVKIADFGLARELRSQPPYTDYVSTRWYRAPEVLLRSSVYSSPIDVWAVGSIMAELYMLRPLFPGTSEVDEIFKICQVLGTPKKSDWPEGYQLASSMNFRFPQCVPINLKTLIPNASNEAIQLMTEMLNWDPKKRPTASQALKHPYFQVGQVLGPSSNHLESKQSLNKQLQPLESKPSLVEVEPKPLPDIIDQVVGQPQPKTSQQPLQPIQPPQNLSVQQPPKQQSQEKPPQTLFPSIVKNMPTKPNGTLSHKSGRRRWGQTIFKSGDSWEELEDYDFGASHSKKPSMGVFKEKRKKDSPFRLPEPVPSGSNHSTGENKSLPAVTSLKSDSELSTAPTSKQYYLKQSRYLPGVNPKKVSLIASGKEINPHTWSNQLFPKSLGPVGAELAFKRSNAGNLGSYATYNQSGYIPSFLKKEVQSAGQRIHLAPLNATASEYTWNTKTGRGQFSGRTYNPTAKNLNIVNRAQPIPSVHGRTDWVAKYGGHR
T6 sequence (Q32MK0 whole entry): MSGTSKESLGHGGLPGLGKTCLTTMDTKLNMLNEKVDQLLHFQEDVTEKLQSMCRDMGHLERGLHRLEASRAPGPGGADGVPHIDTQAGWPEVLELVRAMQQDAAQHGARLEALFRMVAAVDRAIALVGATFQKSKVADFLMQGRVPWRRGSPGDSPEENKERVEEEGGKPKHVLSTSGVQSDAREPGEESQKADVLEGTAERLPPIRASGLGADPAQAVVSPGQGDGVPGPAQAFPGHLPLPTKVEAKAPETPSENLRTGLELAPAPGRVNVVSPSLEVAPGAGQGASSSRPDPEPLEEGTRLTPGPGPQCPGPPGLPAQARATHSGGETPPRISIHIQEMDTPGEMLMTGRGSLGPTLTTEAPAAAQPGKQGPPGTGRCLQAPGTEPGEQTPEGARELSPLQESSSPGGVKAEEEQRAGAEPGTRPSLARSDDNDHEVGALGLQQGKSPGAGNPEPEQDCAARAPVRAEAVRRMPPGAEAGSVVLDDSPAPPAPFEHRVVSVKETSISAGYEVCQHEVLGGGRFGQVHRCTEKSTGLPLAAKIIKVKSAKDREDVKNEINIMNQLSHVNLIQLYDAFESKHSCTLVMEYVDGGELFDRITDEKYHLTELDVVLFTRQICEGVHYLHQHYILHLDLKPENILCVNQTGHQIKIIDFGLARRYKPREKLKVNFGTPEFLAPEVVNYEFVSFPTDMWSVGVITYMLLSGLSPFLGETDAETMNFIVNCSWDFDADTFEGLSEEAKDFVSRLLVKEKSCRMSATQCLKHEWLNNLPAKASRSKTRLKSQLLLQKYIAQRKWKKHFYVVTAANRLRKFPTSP
Chain of SRMS (Q9H3Y6 whole entry): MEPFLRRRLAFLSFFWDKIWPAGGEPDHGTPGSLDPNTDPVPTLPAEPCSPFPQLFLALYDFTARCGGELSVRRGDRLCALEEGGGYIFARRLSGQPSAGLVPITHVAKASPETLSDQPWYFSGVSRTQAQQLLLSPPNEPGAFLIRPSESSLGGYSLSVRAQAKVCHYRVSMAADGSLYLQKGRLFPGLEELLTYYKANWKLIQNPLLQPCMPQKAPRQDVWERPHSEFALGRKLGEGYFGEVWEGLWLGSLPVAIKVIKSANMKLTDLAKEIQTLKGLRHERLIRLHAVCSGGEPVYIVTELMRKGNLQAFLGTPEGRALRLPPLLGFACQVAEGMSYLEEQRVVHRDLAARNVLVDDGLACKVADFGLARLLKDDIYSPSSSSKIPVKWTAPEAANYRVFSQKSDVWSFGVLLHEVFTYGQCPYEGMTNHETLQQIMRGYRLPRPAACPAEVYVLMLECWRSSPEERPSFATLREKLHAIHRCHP
T1 sequence (O94921 whole entry): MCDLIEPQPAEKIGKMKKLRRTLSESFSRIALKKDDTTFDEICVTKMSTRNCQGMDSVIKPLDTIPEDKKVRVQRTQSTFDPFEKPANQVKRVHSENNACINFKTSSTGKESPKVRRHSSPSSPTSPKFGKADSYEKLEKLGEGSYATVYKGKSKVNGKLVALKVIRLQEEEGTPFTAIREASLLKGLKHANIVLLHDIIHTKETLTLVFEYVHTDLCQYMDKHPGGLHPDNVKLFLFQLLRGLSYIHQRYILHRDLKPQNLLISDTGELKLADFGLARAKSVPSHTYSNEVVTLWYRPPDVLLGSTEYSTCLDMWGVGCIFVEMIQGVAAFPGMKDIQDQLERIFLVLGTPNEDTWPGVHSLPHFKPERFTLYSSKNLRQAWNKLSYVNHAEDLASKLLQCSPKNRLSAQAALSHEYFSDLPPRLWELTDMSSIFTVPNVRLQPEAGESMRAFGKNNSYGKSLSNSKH

As to `COc1ccc(-c2cnccc2-c2cnc(NC(=O)C(C)C)s2)c(C(F)(F)F)c1` [CRT0105446, N-{5-[3-(4-Methoxy-2-trifluoromethyl-phenyl)-pyridin-4-yl]-hiazol-2-yl}-isobutyramide], the remaining binding at 10 µM at PFTK1 came out at 51%; at NEK5, 99%; on TLK2 it was 99%; on CAMK2G, 80%; on CLK3, 49%; on MELK, 100%. Further, the remaining binding at 10 µM on NDR1 is 100%; on MTOR it was 64%; at FLT3(N841I) it was 22%; at INSR, 100%; on MAK, 0.6%; in [1], 81%. For the same compound, the remaining binding at 10 µM turned out to be 88% at AURKC; 100% at MST1; 75% at HIPK4; 98% at PRKD3; 92% in [2]; 100% on MAP4K5. The remaining binding at 10 µM is 79% on FLT3(ITD); 90% on MLCK; 92% on PHKG2; 93% at SRMS; 96% on MET(Y1235D).
Take `Cc1ccc(-c2cnccc2-c2cnc(Nc3ccc(O)cc3)s2)c(Cl)c1` [CRT0105950, 4-{5-[3-(2-Chloro-4-methyl-phenyl)-pyridin-4-yl]-thiazol-2-ylamino}-phenol]: the remaining binding at 10 µM on PFTK1 turned out to be 47%; at NEK5, 65%; at TLK2, 56%; at CAMK2G, 49%; at CLK3, 22%; at MELK it was 11%. Further, the remaining binding at 10 µM at NDR1 amounted to 86%; on MTOR it was 35%; at FLT3(N841I), 0%; on INSR, 1%; on MAK it was 2%; in [1] it was 74%. The remaining binding at 10 µM was found to be 3.8% on AURKC; 3.4% on MST1; 16% on HIPK4; 11% at PRKD3; 86% in assay [2]; 32% on MAP4K5. In addition, the remaining binding at 10 µM on FLT3(ITD) came to 4.4%; on MLCK, 14%; at PHKG2, 52%; at SRMS it was 87%; at MET(Y1235D) it was 14%.
